Source: patent US4450234A, “Antibiotic C-15003 PHM and production thereof” (Takeda Chemical Industries, Ltd., priority 1979, dated 1984)
Converted amounts (≈) assume the structure as drawn.

Columns and labels:
[1] = Neutral lipophilic character; assay type: physicochemical
Bacillus cereus = experiment: Antibacterial activity, paper disk method; assay type: cell-based; conditions: paper disk 8 mm, 0.02 ml of 300 μg/ml solution, Trypticase-soy-agar
Protocol: (§1) Using Trypticase-soy-agar (Baltimore Biologicals, U.S.A.) as the assay medium, the growth inhibitory concentrations of the compound against the various microorganisms named hereinbelow were determined by the paperdisk method. Thus, on plate media containing the following microorganisms, respectively, minimal inhibitory concentrations were determined using paper disks imbibed with 0.02 ml of a 300 μg/ml solution of PHM-3 or PHM-4 (disks, Toyo Seisakusho, Japan, thin-type, diam. 8 mm).
(§2) Escherichia coli, Proteus vulgaris, Proteus mirabilis, Pseudomonas aeruginosa, Staphylococcus aureus, Bacillus subtilis, Bacillus cereus, Klebsiella pneumoniae, Serratia marcessence, Mycobacterium avium.
(§3) Using Trypticase-soy-agar (Baltimore Biologicals, U.S.A.) as the test medium, the growth inhibitory activity of the compound against the organisms named below was assayed by the paper disk method. Thus, on the plate media each containing one of the undermentioned organisms, the activity of the compound was tested using paper disks (Toyo Seisakusho, Japan, thin type, diam. 8 mm) imbibed with 0.02 ml of a 300 μg/ml solution of PHM-3-acetate.
(§4) Escherichia coli, Proteus vulgaris, Proteus mirabilis, Pseudomonas aeruginosa, Staphylococcus aureus, Bacillus subtilis, Bacillus cereus, Klebsiella pneumoniae, Serratia marcescence, Mycobacterium avium.

Bacillus subtilis = experiment: Antibacterial activity, paper disk method; assay type: cell-based; conditions: paper disk 8 mm, 0.02 ml of 300 μg/ml solution, Trypticase-soy-agar
Protocol: as §1, §2, §3, §4

Escherichia coli = experiment: Antibacterial activity, paper disk method; assay type: cell-based; conditions: paper disk 8 mm, 0.02 ml of 300 μg/ml solution, Trypticase-soy-agar
Protocol: as §1, §2, §3, §4

Klebsiella pneumoniae = experiment: Antibacterial activity, paper disk method; assay type: cell-based; conditions: paper disk 8 mm, 0.02 ml of 300 μg/ml solution, Trypticase-soy-agar
Protocol: as §1, §2, §3, §4

Mycobacterium avium = experiment: Antibacterial activity, paper disk method; assay type: cell-based; conditions: paper disk 8 mm, 0.02 ml of 300 μg/ml solution, Trypticase-soy-agar
Protocol: as §1, §2, §3, §4

Proteus mirabilis = experiment: Antibacterial activity, paper disk method; assay type: cell-based; conditions: paper disk 8 mm, 0.02 ml of 300 μg/ml solution, Trypticase-soy-agar
Protocol: as §1, §2, §3, §4

Proteus vulgaris = experiment: Antibacterial activity, paper disk method; assay type: cell-based; conditions: paper disk 8 mm, 0.02 ml of 300 μg/ml solution, Trypticase-soy-agar
Protocol: as §1, §2, §3, §4

Pseudomonas aeruginosa = experiment: Antibacterial activity, paper disk method; assay type: cell-based; conditions: paper disk 8 mm, 0.02 ml of 300 μg/ml solution, Trypticase-soy-agar
Protocol: as §1, §2, §3, §4

Serratia marcessence = experiment: Antibacterial activity, paper disk method; assay type: cell-based; conditions: paper disk 8 mm, 0.02 ml of 300 μg/ml solution, Trypticase-soy-agar
Protocol: as §1, §2, §3, §4

Staphylococcus aureus = experiment: Antibacterial activity, paper disk method; assay type: cell-based; conditions: paper disk 8 mm, 0.02 ml of 300 μg/ml solution, Trypticase-soy-agar
Protocol: as §1, §2, §3, §4

Tetrahymena pyriformis W = experiment: Antiprotozoan growth inhibition, serial broth dilution method; assay type: cell-based; conditions: 44 h, 28° C., 44 to 48 hours, pH 7.0, serial broth dilution, read-out: growth inhibitory concentration
Protocol: In addition, using Tetrahymena pyriformis W strain as the test organism and the assay medium composed of 20 g proteose peptone (Difco, U.S.A.), 1 g yeast extract, 2 g glucose, 1000 ml distilled water and 10 ml 1 M phosphate buffer, pH 7.0, cultivation was carried out at 28° C. for 44 to 48 hours and the growth inhibitory concentration of the antibiotic was determined by the serial broth dilution method.
Tetrahymena pyriformis W, as the test organism, was cultivated on an assay medium [20 g of proteose-peptone (Difco, U.S.A.), 1 g of yeast extract, 2 g of glucose, 1000 ml of distilled water, 10 ml of 1 M phosphate buffer, pH 7.0] at 28° C. for 44 to 48 hours and the growth inhibitory activity of the compound against the above-mentioned strain was assayed by the serial dilution method.

Nocardia sp. No. N-1231 = experiment: Antibiotic resistance of No. N-1231 strain; assay type: cell-based

SMILES	neutral lipophilic / fat-soluble character [1]	activity (growth inhibition) (Bacillus cereus)	activity (growth inhibition) (Bacillus subtilis)	activity (growth inhibition) (Escherichia coli)	activity (growth inhibition) (Klebsiella pneumoniae)	activity (growth inhibition) (Mycobacterium avium)	activity (growth inhibition) (Proteus mirabilis)	activity (growth inhibition) (Proteus vulgaris)	activity (growth inhibition) (Pseudomonas aeruginosa)	activity (growth inhibition) (Serratia marcessence)	activity (growth inhibition) (Staphylococcus aureus)	MIC (Tetrahymena pyriformis W) [µg/mL]	resistance of No. N-1231 strain (Nocardia sp. No. N-1231)
COc1cc2cc(c1Cl)N(C)C(=O)CC(O)C1(C)OC1C(C)C1CC(O)(NC(=O)O1)C(OC)/C=C/C=C(\C)C2 (stereo not drawn) [P-0, maytansinol]	neutral lipophilic												
COc1cc2cc(c1Cl)N(C)C(=O)CC(OC(=O)C(C)C)C1(C)OC1C(C)C1CC(O)(NC(=O)O1)C(OC)C=CC=C(COC(C)=O)C2 (stereo not drawn) [PHM-3-acetate]		failed to show activity	failed to show activity	failed to show activity	failed to show activity	failed to show activity	failed to show activity	failed to show activity	failed to show activity	failed to show activity	failed to show activity	8 (≈ 11.5 µM)	
COc1cc2cc(c1Cl)N(C)C(=O)CC(OC(=O)C(C)C)C1(C)OC1C(C)C1CC(O)(NC(=O)O1)C(OC)C=CC=C(CO)C2 (stereo not drawn) [PHM-3]		no activity	no activity	no activity	no activity	no activity	no activity	no activity	no activity	no activity	no activity	40 (≈ 61.4 µM)	
CCC[C@@H]1C[C@@H](C(=O)N[C@@H]([C@H]2O[C@H](SC)[C@H](O)[C@@H](O)[C@H]2O)[C@@H](C)O)N(C)C1 [lincomycin]													resistant
CC1(C)S[C@@H]2[C@H](NC(=O)Cc3ccccc3)C(=O)N2[C@H]1C(=O)O [penicillin G]													resistant
COc1cc2cc(c1Cl)N(C)C(=O)CC(OC(C)=O)C1(C)OC1C(C)C1CC(O)(NC(=O)O1)C(OC)C=CC=C(C)C2 (stereo not drawn) [P-1, maytanacine]	neutral lipophilic												
[H]/N=C(/N)N[C@H]1[C@H](O)[C@@H](O)[C@H](O[C@@H]2O[C@@H](C)[C@](O)(C=O)[C@H]2O[C@@H]2O[C@@H](CO)[C@H](O)[C@@H](O)[C@@H]2NC)[C@@H](N/C(N)=N\[H])[C@@H]1O [streptomycin]													resistant
CCC(=O)OC1CC(=O)N(C)c2cc(cc(OC)c2Cl)CC(C)=CC=CC(OC)C2(O)CC(OC(=O)N2)C(C)C2OC12C (stereo not drawn) [P-2, maytansinol propionate]	neutral lipophilic												
COc1cc2cc(c1Cl)N(C)C(=O)CC(OC(=O)CC(C)C)C1(C)OC1C(C)C1CC(O)(NC(=O)O1)C(OC)C=CC=C(CO)C2 (stereo not drawn) [PHM-4]		no activity	no activity	no activity	no activity	no activity	no activity	no activity	no activity	no activity	no activity	40 (≈ 60.1 µM)	
